#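 Dose response: 5 concentrations. Exposure: 48 h. Format: 96-well plates. Endpoint: linear interpolation; highest concentration if not reached. Definition used: TGI = concentration required for complete inhibition of growth.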
# Tests used:
# Assay in all cases: inhibition of tumour cell growth, NCI panel, 48 h
# [1] = system: 786-0 renal
# [2] = system: A498 renal
# [3] = system: A549 NSCLC
# [4] = system: ACHN renal
# [5] = system: BT-549 breast
# [6] = system: CAKI-1 renal
# [7] = system: CCRF-CEM leukemia
# [8] = system: COLO 205 colon
# [9] = system: DU-145 prostate
# [10] = system: EKVX NSCLC
# [11] = system: HCC-2998 colon
# [12] = system: HCT-116 colon
# [13] = system: HCT-15 colon
# [14] = system: HOP-62 NSCLC
# [15] = system: HOP-92 NSCLC
# [16] = system: HS 578T breast
# [17] = system: HT29 colon
# [18] = system: IGROV1 ovarian
# [19] = system: K-562 leukemia
# [20] = system: KM12 colon
# [21] = system: LOX IMVI melanoma
# [22] = system: M14 melanoma
# [23] = system: MALME-3M melanoma
# [24] = system: MCF7 breast
# [25] = system: MDA-MB-231 breast
# [26] = system: MDA-MB-435
# [27] = system: MDA-N
# [28] = system: MOLT-4 leukemia
# [29] = system: NCI-H226 lung
# [30] = system: NCI-H23 lung
# [31] = system: NCI-H460 lung
# [32] = system: NCI-H522 lung
# [33] = system: NCI/ADR-RES ovarian
# [34] = system: OVCAR-3 ovarian
# [35] = system: OVCAR-4 ovarian
# [36] = system: OVCAR-5 ovarian
# [37] = system: OVCAR-8 ovarian
# [38] = system: PC-3 prostate
# [39] = system: RPMI-8226 leukemia
# [40] = system: SF-268 CNS
# [41] = system: SF-295 CNS
# [42] = system: SF-539 CNS
# [43] = system: SK-MEL-2 melanoma
# [44] = system: SK-MEL-28 melanoma
# [45] = system: SK-MEL-5 melanoma
# [46] = system: SK-OV-3 ovarian
# [47] = system: SN12C renal
# [48] = system: SNB-19 CNS
# [49] = system: SNB-75 CNS
# [50] = system: SR leukemia
# [51] = system: SW-620 colon
# [52] = system: T-47D breast
# [53] = system: TK-10 renal
# [54] = system: U251 CNS
# [55] = system: UACC-257 melanoma
# [56] = system: UACC-62 melanoma
# [57] = system: UO-31 renal
# [58] = system: HL-60(TB) leukemia
# [59] = system: RXF 393 renal
structure (smiles),measurement,setting,value
Nc1ncnc2c1ncc(=O)n2C1CC(O)C(CO)O1 (stereo not given),TGI,[1],> 100 µM
same,TGI,[2],> 100 µM
same,TGI,[3],> 100 µM
same,TGI,[4],> 100 µM
same,TGI,[5],> 100 µM
same,TGI,[6],> 100 µM
same,TGI,[7],> 100 µM
same,TGI,[8],> 100 µM
same,TGI,[9],> 100 µM
same,TGI,[10],> 100 µM
same,TGI,[11],> 100 µM
same,TGI,[12],> 100 µM
same,TGI,[13],> 100 µM
same,TGI,[14],> 100 µM
same,TGI,[15],> 100 µM
same,TGI,[16],> 100 µM
same,TGI,[17],> 100 µM
same,TGI,[18],> 100 µM
same,TGI,[19],> 100 µM
same,TGI,[20],> 100 µM
same,TGI,[21],> 100 µM
same,TGI,[22],> 100 µM
same,TGI,[23],> 100 µM
same,TGI,[24],> 100 µM
same,TGI,[25],> 100 µM
same,TGI,[26],> 100 µM
same,TGI,[27],> 100 µM
same,TGI,[28],> 100 µM
same,TGI,[29],> 100 µM
same,TGI,[30],> 100 µM
same,TGI,[31],> 100 µM
same,TGI,[32],> 100 µM
same,TGI,[33],> 100 µM
same,TGI,[34],> 100 µM
same,TGI,[35],> 100 µM
same,TGI,[36],> 100 µM
same,TGI,[37],> 100 µM
same,TGI,[38],> 100 µM
same,TGI,[39],> 100 µM
same,TGI,[40],> 100 µM
same,TGI,[41],> 100 µM
same,TGI,[42],> 100 µM
same,TGI,[43],> 100 µM
same,TGI,[44],> 100 µM
same,TGI,[45],> 100 µM
same,TGI,[46],> 100 µM
same,TGI,[47],> 100 µM
same,TGI,[48],> 100 µM
same,TGI,[49],> 100 µM
same,TGI,[50],> 100 µM
same,TGI,[51],> 100 µM
same,TGI,[52],> 100 µM
same,TGI,[53],> 100 µM
same,TGI,[54],> 100 µM
same,TGI,[55],> 100 µM
same,TGI,[56],> 100 µM
same,TGI,[57],> 100 µM
Cc1ccccc1OC(C)C(=O)NN1C(=O)CC(=O)NC1=S (stereo not given),TGI,[1],> 100 µM
same,TGI,[2],> 100 µM
same,TGI,[3],> 100 µM
same,TGI,[4],> 100 µM
same,TGI,[5],> 100 µM
same,TGI,[6],> 100 µM
same,TGI,[8],> 100 µM
same,TGI,[9],> 100 µM
same,TGI,[10],> 100 µM
same,TGI,[11],> 100 µM
same,TGI,[12],> 100 µM
same,TGI,[13],> 100 µM
same,TGI,[58],> 100 µM
same,TGI,[14],> 100 µM
same,TGI,[15],> 100 µM
same,TGI,[16],> 100 µM
same,TGI,[17],> 100 µM
same,TGI,[18],> 100 µM
same,TGI,[19],> 100 µM
same,TGI,[20],> 100 µM
same,TGI,[21],> 100 µM
same,TGI,[22],> 100 µM
same,TGI,[23],> 100 µM
same,TGI,[24],> 100 µM
same,TGI,[25],> 100 µM
same,TGI,[26],> 100 µM
same,TGI,[27],> 100 µM
same,TGI,[28],> 100 µM
same,TGI,[29],> 100 µM
same,TGI,[30],> 100 µM
same,TGI,[31],> 100 µM
same,TGI,[32],> 100 µM
same,TGI,[33],> 100 µM
same,TGI,[34],> 100 µM
same,TGI,[35],> 100 µM
same,TGI,[36],> 100 µM
same,TGI,[37],> 100 µM
same,TGI,[38],> 100 µM
same,TGI,[39],> 100 µM
same,TGI,[59],> 100 µM
same,TGI,[40],> 100 µM
same,TGI,[41],> 100 µM
same,TGI,[42],> 100 µM
same,TGI,[43],> 100 µM
same,TGI,[44],> 100 µM
same,TGI,[45],> 100 µM
same,TGI,[46],> 100 µM
same,TGI,[47],> 100 µM
same,TGI,[48],> 100 µM
same,TGI,[49],> 100 µM
same,TGI,[50],> 100 µM
same,TGI,[51],> 100 µM
same,TGI,[52],> 100 µM
same,TGI,[53],> 100 µM
same,TGI,[54],> 100 µM
same,TGI,[55],> 100 µM
same,TGI,[56],> 100 µM
same,TGI,[57],> 100 µM
O=c1[nH]nc(-c2ccccc2)n1/N=C\CC/C=N\n1c(-c2ccccc2)n[nH]c1=O,TGI,[1],75.9 µM
same,TGI,[3],> 100 µM
same,TGI,[4],> 100 µM
same,TGI,[5],60.9 µM
same,TGI,[6],> 100 µM
same,TGI,[8],> 100 µM
same,TGI,[9],> 100 µM
same,TGI,[10],> 100 µM
same,TGI,[11],> 100 µM
same,TGI,[12],> 66.7 µM
same,TGI,[13],49.9 µM
same,TGI,[58],> 100 µM
same,TGI,[14],98.7 µM
same,TGI,[15],84.6 µM
same,TGI,[16],> 83.7 µM
same,TGI,[17],42.5 µM
same,TGI,[18],> 85.2 µM
same,TGI,[19],> 100 µM
same,TGI,[20],> 100 µM
same,TGI,[21],27.1 µM
same,TGI,[22],47.1 µM
same,TGI,[23],72.4 µM
same,TGI,[24],> 92.2 µM
same,TGI,[25],> 81.4 µM
same,TGI,[26],60.8 µM
same,TGI,[27],44.3 µM
same,TGI,[28],> 31.6 µM
same,TGI,[29],> 72.2 µM
same,TGI,[30],21.7 µM
same,TGI,[31],> 74.5 µM
same,TGI,[32],> 100 µM
same,TGI,[33],96.9 µM
same,TGI,[34],51.8 µM
same,TGI,[35],> 100 µM
same,TGI,[36],> 100 µM
same,TGI,[37],> 86.9 µM
same,TGI,[38],> 77.5 µM
same,TGI,[39],99.8 µM
same,TGI,[59],> 100 µM
same,TGI,[40],> 71 µM
same,TGI,[41],> 100 µM
same,TGI,[42],> 69.5 µM
same,TGI,[43],50.9 µM
same,TGI,[44],> 54.6 µM
same,TGI,[45],> 56 µM
same,TGI,[46],> 100 µM
same,TGI,[47],47 µM
same,TGI,[48],> 100 µM
same,TGI,[49],> 100 µM
same,TGI,[50],> 94.8 µM
same,TGI,[51],> 100 µM
same,TGI,[52],99 µM
same,TGI,[53],> 100 µM
same,TGI,[54],> 100 µM
same,TGI,[55],> 100 µM
same,TGI,[56],43.5 µM
same,TGI,[57],> 100 µM
O=[N+]([O-])c1ccc2c(c1)c1nn2CCCCOc2nn(c3ccc([N+](=O)[O-])cc23)CCCCO1,TGI,[1],> 100 µM
same,TGI,[2],> 100 µM
same,TGI,[4],> 100 µM
same,TGI,[5],> 100 µM
same,TGI,[6],> 100 µM
same,TGI,[8],> 100 µM
same,TGI,[9],> 100 µM
same,TGI,[10],> 100 µM
same,TGI,[11],> 100 µM
same,TGI,[12],> 100 µM
same,TGI,[13],> 100 µM
same,TGI,[58],> 100 µM
same,TGI,[14],> 100 µM
same,TGI,[15],> 100 µM
same,TGI,[16],> 100 µM
same,TGI,[18],> 100 µM
same,TGI,[19],> 100 µM
same,TGI,[21],> 100 µM
same,TGI,[22],> 100 µM
same,TGI,[23],> 100 µM
same,TGI,[24],> 100 µM
same,TGI,[25],> 100 µM
same,TGI,[26],> 100 µM
same,TGI,[27],> 100 µM
same,TGI,[28],> 100 µM
same,TGI,[29],> 100 µM
same,TGI,[30],> 100 µM
same,TGI,[31],> 100 µM
same,TGI,[32],> 100 µM
same,TGI,[33],> 100 µM
same,TGI,[34],> 100 µM
same,TGI,[35],> 100 µM
same,TGI,[36],> 100 µM
same,TGI,[37],> 100 µM
same,TGI,[38],> 100 µM
same,TGI,[39],> 100 µM
same,TGI,[59],> 100 µM
same,TGI,[40],> 100 µM
same,TGI,[41],> 100 µM
same,TGI,[42],> 100 µM
same,TGI,[43],> 100 µM
same,TGI,[44],> 100 µM
same,TGI,[46],> 100 µM
same,TGI,[47],> 100 µM
same,TGI,[48],> 100 µM
same,TGI,[49],> 100 µM
same,TGI,[50],> 100 µM
same,TGI,[52],> 100 µM
same,TGI,[54],> 100 µM
same,TGI,[55],> 100 µM
same,TGI,[57],> 100 µM
c1ccc2c(c1)c1c(n2CCOCCCN2CCCCC2)CCCC1,TGI,[2],91.9 µM
same,TGI,[3],39.2 µM
same,TGI,[4],28.4 µM
same,TGI,[5],29.6 µM
same,TGI,[6],39.3 µM
same,TGI,[8],45.5 µM
same,TGI,[9],> 100 µM
same,TGI,[10],62.5 µM
same,TGI,[11],33.7 µM
same,TGI,[13],27.6 µM
same,TGI,[58],30.4 µM
same,TGI,[14],30.6 µM
same,TGI,[15],58.1 µM
same,TGI,[16],47.8 µM
same,TGI,[17],24.7 µM
same,TGI,[18],29.2 µM
same,TGI,[19],30.9 µM
same,TGI,[20],30 µM
same,TGI,[22],> 100 µM
same,TGI,[23],33.3 µM
same,TGI,[24],31.5 µM
same,TGI,[25],40.1 µM
same,TGI,[26],33.8 µM
same,TGI,[27],47.8 µM
same,TGI,[28],19.6 µM
same,TGI,[29],32.5 µM
same,TGI,[30],37.9 µM
same,TGI,[31],29.8 µM
same,TGI,[32],29.8 µM
same,TGI,[33],40.6 µM
same,TGI,[34],30.7 µM
same,TGI,[35],57 µM
same,TGI,[36],30 µM
same,TGI,[37],32.5 µM
same,TGI,[38],33.1 µM
same,TGI,[39],92 µM
same,TGI,[59],25.1 µM
same,TGI,[40],99.8 µM
same,TGI,[42],31.3 µM
same,TGI,[43],37.6 µM
same,TGI,[44],38.5 µM
same,TGI,[45],40.7 µM
same,TGI,[47],34.3 µM
same,TGI,[48],75.4 µM
same,TGI,[49],38.7 µM
same,TGI,[50],35.1 µM
same,TGI,[51],39.6 µM
same,TGI,[52],43.9 µM
same,TGI,[53],31.9 µM
same,TGI,[54],30.5 µM
same,TGI,[55],32.9 µM
same,TGI,[57],25.4 µM
